Reference: ChEMBL document CHEMBL4229394 (Bioorg Med Chem Lett, 2018)
Values belong to the molecule of their own block, whether it stands above or below them.

Key:
HEK293 = test: Cytotoxicity against HEK293 cells co-expressing human GABA-B1/B2 receptor and Cre-luc plasmid at 50 to 100 uM after 3 hrs by CellTiter 96 aqueous one solution reagent based assay; assay type: cell-based; conditions: hek293, 3 h
GABA-B receptor = GABA-B receptor (Homo sapiens, UniProt O75899+Q9UBS5); test: Agonist activity at human GABA-B1/B2 receptor expressed in HEK293/Cre-luc cells assessed as inhibition of forskolin-stimulated cAMP accumulation after 3 hrs by luciferase reporter gene assay; assay type: cell-based
[1] = molecular target: GABA-A receptor; alpha-1/beta-2/gamma-2 (Rattus norvegicus, UniProt P18508+P62813+P63138); test: Agonist activity at rat GFP-fused GABA-A alpha1/beta2/gamma2 receptor expressed in human tsA201 cells at -60 mV holding potential by whole-cell voltage clamp method; assay type: cell-based
[2] = molecular target: Histamine H2 receptor (Homo sapiens) (UniProt P25021); test: Inhibition of H2 receptor (unknown origin) by radio ligand displacement assay relative to control; conditions: concentration not given here
[3] = molecular target: Sodium-dependent dopamine transporter (Homo sapiens) (UniProt Q01959); test: Inhibition of DAT (unknown origin) by radio ligand displacement assay relative to control; conditions: concentration not given here
[4] = molecular target: 5-hydroxytryptamine receptor 5A (Homo sapiens) (UniProt P47898); test: Inhibition of 5-HT5A receptor (unknown origin) by radio ligand displacement assay relative to control; conditions: concentration not given here
[5] = molecular target: D(3) dopamine receptor (Homo sapiens) (UniProt P35462); test: Inhibition of D3 receptor (unknown origin) by radio ligand displacement assay relative to control; conditions: concentration not given here
[6] = molecular target: D(4) dopamine receptor (Homo sapiens) (UniProt P21917); test: Inhibition of D4 receptor (unknown origin) by radio ligand displacement assay relative to control; conditions: concentration not given here
[7] = molecular target: Sodium-dependent serotonin transporter (Homo sapiens) (UniProt P31645); test: Inhibition of SERT (unknown origin) by radio ligand displacement assay relative to control; conditions: concentration not given here
[8] = molecular target: Sigma non-opioid intracellular receptor 1 (Rattus norvegicus) (UniProt Q9R0C9); test: Inhibition of rat sigma-1 receptor by radio ligand displacement assay relative to control; conditions: concentration not given here
[9] = molecular target: Delta-type opioid receptor (Homo sapiens) (UniProt P41143); test: Inhibition of DOR (unknown origin) by radio ligand displacement assay relative to control; conditions: concentration not given here
[10] = molecular target: D(1B) dopamine receptor (Homo sapiens) (UniProt P21918); test: Inhibition of D5 receptor (unknown origin) by radio ligand displacement assay relative to control; conditions: concentration not given here
[11] = molecular target: Beta-3 adrenergic receptor (Homo sapiens) (UniProt P13945); test: Inhibition of beta-3 adrenergic receptor (unknown origin) by radio ligand displacement assay relative to control; conditions: concentration not given here
[12] = molecular target: Beta-2 adrenergic receptor (Homo sapiens) (UniProt P07550); test: Inhibition of beta-2 adrenergic receptor (unknown origin) by radio ligand displacement assay relative to control; conditions: concentration not given here
[13] = molecular target: Muscarinic acetylcholine receptor M3 (Homo sapiens) (UniProt P20309); test: Inhibition of M3 receptor (unknown origin) by radio ligand displacement assay relative to control; conditions: concentration not given here
[14] = molecular target: Muscarinic acetylcholine receptor M1 (Homo sapiens) (UniProt P11229); test: Inhibition of M1 receptor (unknown origin) by radio ligand displacement assay relative to control; conditions: concentration not given here
[15] = molecular target: 5-hydroxytryptamine receptor 6 (Homo sapiens) (UniProt P50406); test: Inhibition of 5-HT6 receptor (unknown origin) by radio ligand displacement assay relative to control; conditions: concentration not given here
[16] = molecular target: Histamine H4 receptor (Homo sapiens) (UniProt Q9H3N8); test: Inhibition of H4 receptor (unknown origin) by radio ligand displacement assay relative to control; conditions: concentration not given here
[17] = molecular target: 5-hydroxytryptamine receptor 1B (Homo sapiens) (UniProt P28222); test: Inhibition of 5-HT1B receptor (unknown origin) by radio ligand displacement assay relative to control; conditions: concentration not given here
[18] = molecular target: Alpha-1D adrenergic receptor (Homo sapiens) (UniProt P25100); test: Inhibition of alpha-1D adrenergic receptor (unknown origin) by radio ligand displacement assay relative to control; conditions: concentration not given here
[19] = molecular target: Alpha-1B adrenergic receptor (Homo sapiens) (UniProt P35368); test: Inhibition of alpha-1B adrenergic receptor (unknown origin) by radio ligand displacement assay relative to control; conditions: concentration not given here
[20] = molecular target: D(2) dopamine receptor (Homo sapiens) (UniProt P14416); test: Inhibition of D2 receptor (unknown origin) by radio ligand displacement assay relative to control; conditions: concentration not given here
[21] = molecular target: D(1A) dopamine receptor (Homo sapiens) (UniProt P21728); test: Inhibition of D1 receptor (unknown origin) by radio ligand displacement assay relative to control; conditions: concentration not given here
[22] = molecular target: 5-hydroxytryptamine receptor 1D (Homo sapiens) (UniProt P28221); test: Inhibition of 5-HT1D receptor (unknown origin) by radio ligand displacement assay relative to control; conditions: concentration not given here
[23] = molecular target: Histamine H3 receptor (Homo sapiens) (UniProt Q9Y5N1); test: Inhibition of H3 receptor (unknown origin) by radio ligand displacement assay relative to control; conditions: concentration not given here
[24] = molecular target: Histamine H1 receptor (Homo sapiens) (UniProt P35367); test: Inhibition of H1 receptor (unknown origin) by radio ligand displacement assay relative to control; conditions: concentration not given here
[25] = molecular target: Mu-type opioid receptor (Homo sapiens) (UniProt P35372); test: Inhibition of MOR (unknown origin) by radio ligand displacement assay relative to control; conditions: concentration not given here
[26] = molecular target: 5-hydroxytryptamine receptor 2A (Homo sapiens) (UniProt P28223); test: Inhibition of 5-HT2A receptor (unknown origin) by radio ligand displacement assay relative to control; conditions: concentration not given here
[27] = molecular target: 5-hydroxytryptamine receptor 2C (Homo sapiens) (UniProt P28335); test: Inhibition of 5-HT2C receptor (unknown origin) by radio ligand displacement assay relative to control; conditions: concentration not given here
[28] = molecular target: Muscarinic acetylcholine receptor M4 (Homo sapiens) (UniProt P08173); test: Inhibition of M4 receptor (unknown origin) by radio ligand displacement assay relative to control; conditions: concentration not given here
[29] = molecular target: Kappa-type opioid receptor (Homo sapiens) (UniProt P41145); test: Inhibition of KOR (unknown origin) by radio ligand displacement assay relative to control; conditions: concentration not given here
[30] = molecular target: Alpha-2A adrenergic receptor (Homo sapiens) (UniProt P08913); test: Inhibition of alpha-2A adrenergic receptor (unknown origin) by radio ligand displacement assay relative to control; conditions: concentration not given here
[31] = molecular target: Muscarinic acetylcholine receptor M5 (Homo sapiens) (UniProt P08912); test: Inhibition of M5 receptor (unknown origin) by radio ligand displacement assay relative to control; conditions: concentration not given here
[32] = molecular target: 5-hydroxytryptamine receptor 1E (Homo sapiens) (UniProt P28566); test: Inhibition of 5-HT1E receptor (unknown origin) by radio ligand displacement assay relative to control; conditions: concentration not given here
[33] = molecular target: Sigma intracellular receptor 2 (Rattus norvegicus) (UniProt Q5U3Y7); test: Inhibition of rat sigma-2 receptor by radio ligand displacement assay relative to control; conditions: concentration not given here
[34] = molecular target: 5-hydroxytryptamine receptor 3A (Homo sapiens) (UniProt P46098); test: Inhibition of 5-HT3 receptor (unknown origin) by radio ligand displacement assay relative to control; conditions: concentration not given here
[35] = molecular target: 5-hydroxytryptamine receptor 7 (Homo sapiens) (UniProt P34969); test: Inhibition of 5-HT7 receptor (unknown origin) by radio ligand displacement assay relative to control; conditions: concentration not given here
[36] = molecular target: Sodium-dependent noradrenaline transporter (Homo sapiens) (UniProt P23975); test: Inhibition of NET (unknown origin) by radio ligand displacement assay relative to control; conditions: concentration not given here
[37] = molecular target: Alpha-1A adrenergic receptor (Homo sapiens) (UniProt P35348); test: Inhibition of alpha-1A adrenergic receptor (unknown origin) by radio ligand displacement assay relative to control; conditions: concentration not given here
[38] = molecular target: 5-hydroxytryptamine receptor 2B (Homo sapiens) (UniProt P41595); test: Inhibition of 5-HT2B receptor (unknown origin) by radio ligand displacement assay relative to control; conditions: concentration not given here
[39] = molecular target: Muscarinic acetylcholine receptor M2 (Homo sapiens) (UniProt P08172); test: Inhibition of M2 receptor (unknown origin) by radio ligand displacement assay relative to control; conditions: concentration not given here
[40] = molecular target: 5-hydroxytryptamine receptor 1A (Homo sapiens) (UniProt P08908); test: Inhibition of 5-HT1A receptor (unknown origin) by radio ligand displacement assay relative to control; conditions: concentration not given here
[41] = molecular target: Beta-1 adrenergic receptor (Homo sapiens) (UniProt P08588); test: Inhibition of beta-1 adrenergic receptor (unknown origin) by radio ligand displacement assay relative to control; conditions: concentration not given here

Sequence of GABA-A receptor; alpha-1/beta-2/gamma-2 (P18508 whole entry, the tested form may be a part): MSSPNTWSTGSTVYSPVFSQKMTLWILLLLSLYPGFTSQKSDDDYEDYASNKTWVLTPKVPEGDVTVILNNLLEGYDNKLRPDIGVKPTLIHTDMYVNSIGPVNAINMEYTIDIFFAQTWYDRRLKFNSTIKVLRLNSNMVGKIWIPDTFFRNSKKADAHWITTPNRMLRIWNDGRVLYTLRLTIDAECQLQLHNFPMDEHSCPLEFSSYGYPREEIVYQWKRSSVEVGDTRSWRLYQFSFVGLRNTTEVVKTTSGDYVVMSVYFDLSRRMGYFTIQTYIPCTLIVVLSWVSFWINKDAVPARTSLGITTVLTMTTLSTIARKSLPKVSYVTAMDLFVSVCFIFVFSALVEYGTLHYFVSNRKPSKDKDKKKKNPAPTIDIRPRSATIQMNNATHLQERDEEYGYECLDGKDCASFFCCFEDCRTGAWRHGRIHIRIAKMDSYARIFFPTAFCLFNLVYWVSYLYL
Sequence of GABA-A receptor; alpha-1/beta-2/gamma-2 (P62813 whole entry, the tested form may be a part): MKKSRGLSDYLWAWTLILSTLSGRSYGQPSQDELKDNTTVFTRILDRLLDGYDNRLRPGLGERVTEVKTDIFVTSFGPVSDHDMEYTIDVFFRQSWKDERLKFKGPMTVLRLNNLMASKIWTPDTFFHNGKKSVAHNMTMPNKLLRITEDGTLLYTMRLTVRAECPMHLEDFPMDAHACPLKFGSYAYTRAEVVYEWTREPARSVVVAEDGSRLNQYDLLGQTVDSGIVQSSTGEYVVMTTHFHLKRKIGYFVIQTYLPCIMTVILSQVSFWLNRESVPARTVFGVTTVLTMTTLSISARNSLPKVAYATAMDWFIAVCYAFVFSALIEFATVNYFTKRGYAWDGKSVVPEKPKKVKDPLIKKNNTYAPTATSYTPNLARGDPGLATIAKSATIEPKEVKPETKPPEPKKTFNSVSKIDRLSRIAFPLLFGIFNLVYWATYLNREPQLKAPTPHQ
Sequence of GABA-A receptor; alpha-1/beta-2/gamma-2 (P63138 whole entry, the tested form may be a part): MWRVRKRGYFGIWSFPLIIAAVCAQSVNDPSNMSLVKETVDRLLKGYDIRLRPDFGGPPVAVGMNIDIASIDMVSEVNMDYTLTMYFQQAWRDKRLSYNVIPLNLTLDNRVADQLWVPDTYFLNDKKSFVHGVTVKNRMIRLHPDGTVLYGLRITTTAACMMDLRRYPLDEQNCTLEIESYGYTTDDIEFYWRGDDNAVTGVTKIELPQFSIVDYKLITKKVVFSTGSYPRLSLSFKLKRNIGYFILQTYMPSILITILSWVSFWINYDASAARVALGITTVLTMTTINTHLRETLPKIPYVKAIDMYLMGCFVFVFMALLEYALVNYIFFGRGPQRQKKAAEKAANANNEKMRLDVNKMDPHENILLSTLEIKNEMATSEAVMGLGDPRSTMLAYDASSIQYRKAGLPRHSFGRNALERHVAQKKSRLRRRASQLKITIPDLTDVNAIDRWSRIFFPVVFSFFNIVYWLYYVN
Sequence of GABA-B receptor (Q9UBS5 whole entry, the tested form may be a part): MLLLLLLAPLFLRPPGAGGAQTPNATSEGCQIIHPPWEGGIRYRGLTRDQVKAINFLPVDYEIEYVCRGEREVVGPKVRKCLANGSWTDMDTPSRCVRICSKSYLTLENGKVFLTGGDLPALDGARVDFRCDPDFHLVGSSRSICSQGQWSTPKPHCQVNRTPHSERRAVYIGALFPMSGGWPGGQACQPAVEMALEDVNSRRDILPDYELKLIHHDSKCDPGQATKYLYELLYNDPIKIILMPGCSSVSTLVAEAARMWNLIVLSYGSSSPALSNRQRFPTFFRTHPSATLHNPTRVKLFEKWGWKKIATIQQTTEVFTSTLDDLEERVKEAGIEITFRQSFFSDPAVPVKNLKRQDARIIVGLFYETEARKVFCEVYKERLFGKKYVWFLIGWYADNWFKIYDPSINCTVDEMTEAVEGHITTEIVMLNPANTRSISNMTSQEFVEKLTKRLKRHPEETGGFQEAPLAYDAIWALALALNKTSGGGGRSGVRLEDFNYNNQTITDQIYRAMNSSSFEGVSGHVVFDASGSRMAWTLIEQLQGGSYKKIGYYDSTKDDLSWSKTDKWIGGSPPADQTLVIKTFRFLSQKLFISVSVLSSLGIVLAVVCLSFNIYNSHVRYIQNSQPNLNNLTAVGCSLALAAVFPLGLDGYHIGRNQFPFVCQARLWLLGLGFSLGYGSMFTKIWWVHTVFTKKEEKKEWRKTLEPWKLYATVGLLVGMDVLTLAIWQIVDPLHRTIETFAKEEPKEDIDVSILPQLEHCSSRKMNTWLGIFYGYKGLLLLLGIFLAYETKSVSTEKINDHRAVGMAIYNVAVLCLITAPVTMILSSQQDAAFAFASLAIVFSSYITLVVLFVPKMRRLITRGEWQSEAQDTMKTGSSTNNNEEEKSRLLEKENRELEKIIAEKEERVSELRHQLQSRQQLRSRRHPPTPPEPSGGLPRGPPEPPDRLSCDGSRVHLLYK
Sequence of GABA-B receptor (O75899 whole entry, the tested form may be a part): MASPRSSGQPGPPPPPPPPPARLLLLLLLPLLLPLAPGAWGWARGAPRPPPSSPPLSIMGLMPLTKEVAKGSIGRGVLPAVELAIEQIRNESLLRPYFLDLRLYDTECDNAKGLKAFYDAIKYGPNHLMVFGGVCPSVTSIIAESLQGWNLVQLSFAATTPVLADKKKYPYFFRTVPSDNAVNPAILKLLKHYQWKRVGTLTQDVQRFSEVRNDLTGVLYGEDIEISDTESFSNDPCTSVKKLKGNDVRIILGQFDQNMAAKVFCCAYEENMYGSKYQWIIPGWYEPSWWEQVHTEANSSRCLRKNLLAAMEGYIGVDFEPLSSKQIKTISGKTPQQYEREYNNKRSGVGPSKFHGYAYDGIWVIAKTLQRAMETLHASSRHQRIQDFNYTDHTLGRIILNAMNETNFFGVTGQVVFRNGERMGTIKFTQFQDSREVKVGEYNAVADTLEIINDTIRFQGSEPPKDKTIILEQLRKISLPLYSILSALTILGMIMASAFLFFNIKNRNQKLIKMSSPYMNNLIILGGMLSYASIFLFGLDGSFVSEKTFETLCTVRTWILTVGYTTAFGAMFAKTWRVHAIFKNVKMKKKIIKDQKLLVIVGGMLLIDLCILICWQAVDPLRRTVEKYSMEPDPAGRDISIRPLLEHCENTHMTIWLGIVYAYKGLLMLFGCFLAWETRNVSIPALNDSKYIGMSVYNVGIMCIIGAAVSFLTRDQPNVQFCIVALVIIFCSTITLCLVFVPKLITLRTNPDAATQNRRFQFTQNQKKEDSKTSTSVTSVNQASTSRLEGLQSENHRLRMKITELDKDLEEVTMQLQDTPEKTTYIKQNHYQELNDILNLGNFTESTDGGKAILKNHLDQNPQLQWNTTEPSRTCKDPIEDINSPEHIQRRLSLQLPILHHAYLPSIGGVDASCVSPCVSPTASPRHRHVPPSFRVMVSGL
Sequence of Sodium-dependent dopamine transporter (Homo sapiens) (Q01959 whole entry): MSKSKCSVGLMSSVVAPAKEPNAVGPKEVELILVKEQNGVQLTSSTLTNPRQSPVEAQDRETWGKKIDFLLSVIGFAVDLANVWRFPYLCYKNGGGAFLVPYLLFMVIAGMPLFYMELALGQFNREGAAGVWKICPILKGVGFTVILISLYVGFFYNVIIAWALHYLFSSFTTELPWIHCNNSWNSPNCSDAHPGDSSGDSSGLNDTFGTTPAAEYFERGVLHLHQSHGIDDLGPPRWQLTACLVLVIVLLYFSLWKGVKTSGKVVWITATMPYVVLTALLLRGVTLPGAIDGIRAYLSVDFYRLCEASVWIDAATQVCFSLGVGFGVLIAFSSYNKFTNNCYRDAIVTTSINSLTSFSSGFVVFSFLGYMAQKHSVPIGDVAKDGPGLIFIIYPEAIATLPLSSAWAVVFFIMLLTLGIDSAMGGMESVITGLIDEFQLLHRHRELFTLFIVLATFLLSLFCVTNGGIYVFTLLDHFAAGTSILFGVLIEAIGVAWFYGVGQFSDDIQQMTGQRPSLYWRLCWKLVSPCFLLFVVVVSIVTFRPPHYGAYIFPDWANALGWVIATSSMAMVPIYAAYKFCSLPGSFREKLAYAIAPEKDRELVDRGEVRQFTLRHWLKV
Sequence of Muscarinic acetylcholine receptor M1 (Homo sapiens) (P11229 whole entry): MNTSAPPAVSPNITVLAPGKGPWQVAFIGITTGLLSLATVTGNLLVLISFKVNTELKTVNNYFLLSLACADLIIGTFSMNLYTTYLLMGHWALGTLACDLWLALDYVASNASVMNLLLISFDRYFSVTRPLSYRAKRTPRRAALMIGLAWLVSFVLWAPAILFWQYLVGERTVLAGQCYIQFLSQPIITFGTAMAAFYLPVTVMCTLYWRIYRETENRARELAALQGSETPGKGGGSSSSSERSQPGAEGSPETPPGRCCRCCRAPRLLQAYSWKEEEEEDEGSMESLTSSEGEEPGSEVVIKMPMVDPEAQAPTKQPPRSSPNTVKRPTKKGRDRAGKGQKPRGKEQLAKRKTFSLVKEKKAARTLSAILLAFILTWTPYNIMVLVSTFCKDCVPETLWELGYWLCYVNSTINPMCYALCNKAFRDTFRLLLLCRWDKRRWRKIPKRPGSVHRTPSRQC
Sequence of Alpha-2A adrenergic receptor (Homo sapiens) (P08913 whole entry): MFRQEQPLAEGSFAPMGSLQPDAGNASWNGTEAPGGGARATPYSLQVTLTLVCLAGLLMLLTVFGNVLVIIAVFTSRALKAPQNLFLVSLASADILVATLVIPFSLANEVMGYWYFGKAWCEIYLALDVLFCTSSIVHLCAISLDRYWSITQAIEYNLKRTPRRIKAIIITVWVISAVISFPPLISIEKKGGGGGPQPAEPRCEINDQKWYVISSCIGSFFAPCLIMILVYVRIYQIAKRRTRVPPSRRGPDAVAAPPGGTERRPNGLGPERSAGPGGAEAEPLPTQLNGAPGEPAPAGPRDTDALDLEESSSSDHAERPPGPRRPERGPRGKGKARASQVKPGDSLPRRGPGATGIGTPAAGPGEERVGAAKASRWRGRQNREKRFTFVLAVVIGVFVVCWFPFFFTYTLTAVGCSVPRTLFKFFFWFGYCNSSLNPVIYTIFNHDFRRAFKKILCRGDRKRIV
Sequence of Sigma intracellular receptor 2 (Rattus norvegicus) (Q5U3Y7 whole entry): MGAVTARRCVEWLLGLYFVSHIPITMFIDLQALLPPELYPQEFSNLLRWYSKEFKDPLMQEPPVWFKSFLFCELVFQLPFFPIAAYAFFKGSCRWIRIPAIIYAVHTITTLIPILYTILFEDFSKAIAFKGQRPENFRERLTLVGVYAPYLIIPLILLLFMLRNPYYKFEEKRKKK

SMILES: O=C(C12CC3CC(CC(C3)C1)C2)C(F)(F)C(O)c1ccccc1 (stereo unspecified)
Activity (HEK293): Toxic | EC50 (GABA-B receptor): > 100 µM

SMILES: CC(C)CC(=O)C(F)(F)C(NC(=O)OC(C)(C)C)c1ccccc1 (stereo unspecified)
EC50 (GABA-B receptor): > 100 µM

SMILES: O=C(c1ccc2ccccc2c1)C(F)(F)C(NCc1ccccc1)c1ccccc1 (stereo unspecified)
EC50 [1]: > 100 µM | EC50 (GABA-B receptor): 91 µM

SMILES: CCc1ccc(C(O)C(F)(F)C(=O)C23CC4CC(CC(C4)C2)C3)cc1 (stereo unspecified)
Activity (HEK293): Toxic | EC50 (GABA-B receptor): > 100 µM

SMILES: O=C(c1ccc(Cl)cc1)C(F)(F)C(NCc1ccccc1)c1ccccc1 (stereo unspecified)
EC50 [1]: > 100 µM | EC50 (GABA-B receptor): 57.4 µM

SMILES: CC(=O)c1ccc(C(O)C(F)(F)C(=O)C23CC4CC(CC(C4)C2)C3)cc1 (stereo unspecified)
inhibition [2]: < 30% | inhibition [3]: < 30% | inhibition [4]: < 30% | inhibition [5]: < 30% | inhibition [6]: < 30% | inhibition [7]: < 30% | inhibition [8]: < 30% | inhibition [9]: < 30% | inhibition [10]: < 30% | inhibition [11]: < 30% | inhibition [12]: < 30% | inhibition [13]: < 30% | inhibition [14]: < 30% | inhibition [15]: < 30% | inhibition [16]: < 30% | inhibition [17]: < 30% | inhibition [18]: < 30% | inhibition [19]: < 30% | inhibition [20]: < 30% | inhibition [21]: < 30% | inhibition [22]: < 30% | inhibition [23]: < 30% | inhibition [24]: < 30% | inhibition [25]: < 30% | inhibition [26]: < 30% | inhibition [27]: < 30% | inhibition [28]: < 30% | inhibition [29]: < 30% | inhibition [30]: < 30% | inhibition [31]: < 30% | inhibition [32]: < 30% | inhibition [33]: < 30% | inhibition [34]: < 30% | inhibition [35]: < 30% | inhibition [36]: < 30% | inhibition [37]: < 30% | inhibition [38]: < 30% | inhibition [39]: < 30% | inhibition [40]: < 30% | inhibition [41]: < 30%

SMILES: C/C=C/C=C/C(NCc1ccccc1)C(F)(F)C(=O)c1ccc2ccccc2c1 (stereo unspecified)
EC50 (GABA-B receptor): > 100 µM

SMILES: O=C(C12CC3CC(CC(C3)C1)C2)C(F)(F)C(O)c1ccc(Cl)cc1 (stereo unspecified)
Activity (HEK293): Toxic | EC50 (GABA-B receptor): > 100 µM

SMILES: O=C(c1ccc2ccccc2c1)C(F)(F)C(NS(=O)(=O)c1ccccc1)c1ccccc1 (stereo unspecified)
EC50 [1]: > 100 µM | EC50 (GABA-B receptor): 32.7 µM

Continued, values first:

EC50 [1]: > 100 µM
SMILES: O=C(C12CC3CC(CC(C3)C1)C2)C(F)(F)C(O)/C=C/c1ccccc1 (stereo unspecified)

EC50 (GABA-B receptor): > 100 µM
SMILES: O=C1c2ccccc2C(=O)N1CC(O)C(F)(F)C(=O)C12CC3CC(CC(C3)C1)C2 (stereo unspecified)

EC50 (GABA-B receptor): > 100 µM
SMILES: CC(C)(C)OC(=O)NC(c1ccccc1)C(F)(F)C(=O)c1ccc2c(c1)OCO2 (stereo unspecified)

inhibition [2]: < 30% | inhibition [3]: < 30% | inhibition [4]: < 30% | inhibition [5]: < 30% | inhibition [6]: < 30% | inhibition [7]: < 30% | inhibition [8]: < 30% | inhibition [9]: < 30% | inhibition [10]: < 30% | inhibition [11]: < 30% | inhibition [12]: < 30% | inhibition [13]: < 30% | inhibition [14]: < 30% | inhibition [15]: < 30% | inhibition [16]: < 30% | inhibition [17]: < 30% | inhibition [18]: < 30% | inhibition [19]: < 30% | inhibition [20]: < 30% | inhibition [21]: < 30% | inhibition [22]: < 30% | inhibition [23]: < 30% | inhibition [24]: < 30% | inhibition [25]: < 30% | EC50 [1]: > 100 µM | inhibition [26]: < 30% | inhibition [27]: < 30% | inhibition [28]: < 30% | inhibition [29]: < 30% | inhibition [30]: < 30% | inhibition [31]: < 30% | inhibition [32]: < 30% | inhibition [33]: < 30% | inhibition [34]: < 30% | inhibition [35]: < 30% | inhibition [36]: < 30% | inhibition [37]: < 30% | inhibition [38]: < 30% | inhibition [39]: < 30% | inhibition [40]: < 30% | EC50 (GABA-B receptor): 19.4 µM | inhibition [41]: < 30%
SMILES: CC(C)(C)OC(=O)NC(c1ccccc1)C(F)(F)C(=O)c1ccc2ccccc2c1 (stereo unspecified)

EC50 (GABA-B receptor): > 100 µM
SMILES: O=C(C12CC3CC(CC(C3)C1)C2)C(F)(F)C(NS(=O)(=O)c1ccccc1)c1ccccc1 (stereo unspecified)

EC50 (GABA-B receptor): > 100 µM
SMILES: CC(=O)c1ccc(C(O)C(F)(F)C(=O)c2ccccn2)cc1 (stereo unspecified)
